Source: ChEMBL document CHEMBL1130430, “Assessment of solvation effects on calculated binding affinity differences: trypsin inhibition by flavonoids as a model system for congeneric series” (J Med Chem, 1997)

Key:
Serine protease 1 = target: T1, Serine protease 1 (Bos taurus, UniProt P00760); assay: Inhibitory concentration of the compounds against Bovine trypsin enzyme.
T1 sequence (P00760 whole entry): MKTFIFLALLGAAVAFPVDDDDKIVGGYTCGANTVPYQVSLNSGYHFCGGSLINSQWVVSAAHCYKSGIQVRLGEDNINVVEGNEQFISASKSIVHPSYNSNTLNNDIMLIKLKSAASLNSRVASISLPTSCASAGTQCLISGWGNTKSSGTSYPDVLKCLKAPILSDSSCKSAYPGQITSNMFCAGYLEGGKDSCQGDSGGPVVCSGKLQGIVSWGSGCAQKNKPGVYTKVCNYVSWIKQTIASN

[1] = Disassociation constant (KI) was obtained from Cheng and Prusoff equation for quercetin trypsin complex

| SMILES | IC50 (Serine protease 1) | Ki [1] |
| --- | --- | --- |
| O=c1cc(-c2ccc(O)cc2)oc2cc(O)cc(O)c12 [APIGENIN] | 142 µM | 39.5 µM |
| O=c1c(O)c(-c2ccc(O)cc2)oc2cc(O)cc(O)c12 [KAEMPFEROL] | 106 µM | 29.5 µM |
| O=c1cc(-c2ccc(O)c(O)c2)oc2cc(O)cc(O)c12 [LUTEOLIN] | 35.3 µM | 9.84 µM |
| O=c1c(O)c(-c2ccc(O)cc2O)oc2cc(O)cc(O)c12 [MORIN] | 111 µM | 30.9 µM |
| O=c1c(O)c(-c2cc(O)c(O)c(O)c2)oc2cc(O)cc(O)c12 [MYRICETIN] | 10.2 µM | 2.84 µM |
| O=c1c(O)c(-c2ccc(O)c(O)c2)oc2cc(O)cc(O)c12 [QUERCETIN] | – | 1.98 µM |
| COc1cc([C@@H]2Oc3c(O)cc([C@H]4Oc5cc(O)cc(O)c5C(=O)[C@@H]4O)cc3[C@H]2CO)ccc1O [SILICRISTIN] | 144 µM | 40.3 µM |
